According to PubChem BioAssay (NCI):
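Five compound concentrations were applied to cells in 96-well plates for 48 hours; endpoints were derived by simple linear interpolation of the resulting dose-response curve. Definition used: TGI = concentration required for complete inhibition of growth.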

How the values were obtained:
Assay in all cases: inhibition of tumour cell growth, NCI panel, 48 h
SNB-19 CNS = tested on: SNB-19 CNS
SK-MEL-2 melanoma = tested on: SK-MEL-2 melanoma
NCI-H23 lung = tested on: NCI-H23 lung
UACC-257 melanoma = tested on: UACC-257 melanoma
OVCAR-8 ovarian = tested on: OVCAR-8 ovarian
HCC-2998 colon = tested on: HCC-2998 colon
RPMI-8226 leukemia = tested on: RPMI-8226 leukemia
SN12C renal = tested on: SN12C renal
NCI-H226 lung = tested on: NCI-H226 lung
UACC-62 melanoma = tested on: UACC-62 melanoma
U251 CNS = tested on: U251 CNS
NCI-H460 lung = tested on: NCI-H460 lung
A549 NSCLC = tested on: A549 NSCLC
K-562 leukemia = tested on: K-562 leukemia
HCT-116 colon = tested on: HCT-116 colon
IGROV1 ovarian = tested on: IGROV1 ovarian
A498 renal = tested on: A498 renal
SF-268 CNS = tested on: SF-268 CNS
CCRF-CEM leukemia = tested on: CCRF-CEM leukemia
SF-295 CNS = tested on: SF-295 CNS
HOP-62 NSCLC = tested on: HOP-62 NSCLC
PC-3 prostate = tested on: PC-3 prostate
MCF7 breast = tested on: MCF7 breast
MDA-MB-231 breast = tested on: MDA-MB-231 breast
SF-539 CNS = tested on: SF-539 CNS
OVCAR-5 ovarian = tested on: OVCAR-5 ovarian
SK-MEL-5 melanoma = tested on: SK-MEL-5 melanoma
LOX IMVI melanoma = tested on: LOX IMVI melanoma
M14 melanoma = tested on: M14 melanoma
SNB-75 CNS = tested on: SNB-75 CNS
MALME-3M melanoma = tested on: MALME-3M melanoma
HT29 colon = tested on: HT29 colon
DU-145 prostate = tested on: DU-145 prostate
TK-10 renal = tested on: TK-10 renal
OVCAR-3 ovarian = tested on: OVCAR-3 ovarian
RXF 393 renal = tested on: RXF 393 renal
UO-31 renal = tested on: UO-31 renal
HOP-92 NSCLC = tested on: HOP-92 NSCLC
MDA-MB-435 = tested on: MDA-MB-435
MDA-N = tested on: MDA-N
OVCAR-4 ovarian = tested on: OVCAR-4 ovarian
786-0 renal = tested on: 786-0 renal
SK-OV-3 ovarian = tested on: SK-OV-3 ovarian
SW-620 colon = tested on: SW-620 colon
KM12 colon = tested on: KM12 colon
BT-549 breast = tested on: BT-549 breast
SK-MEL-28 melanoma = tested on: SK-MEL-28 melanoma
NCI-H522 lung = tested on: NCI-H522 lung
ACHN renal = tested on: ACHN renal
HCT-15 colon = tested on: HCT-15 colon
NCI/ADR-RES ovarian = tested on: NCI/ADR-RES ovarian
COLO 205 colon = tested on: COLO 205 colon
HS 578T breast = tested on: HS 578T breast
CAKI-1 renal = tested on: CAKI-1 renal
HL-60(TB) leukemia = tested on: HL-60(TB) leukemia
EKVX NSCLC = tested on: EKVX NSCLC
MOLT-4 leukemia = tested on: MOLT-4 leukemia
SR leukemia = tested on: SR leukemia

Measured: TGI

CNC(=O)c1ccc(C(=O)NCCCCCN(O)C(=O)CCC(=O)NCCCCCN(O)C(=O)CCC(=O)NCCCCCN(O)C(C)=O)c(O)c1O
31 µM: CCRF-CEM leukemia
not listed: EKVX NSCLC | MOLT-4 leukemia | SR leukemia
> 100 µM: all other assays above

Cc1cc(O)c(C=NC(=S)c2ccncc2)c(=O)o1
not listed: RPMI-8226 leukemia | K-562 leukemia
> 100 µM: all other assays above
